Experimental data taken from a polymer gas permeability compilation.

Structure (SMILES): *C(=C(*)c1ccc([Si](C(C)C)(C(C)C)C(C)C)cc1)c1ccccc1 (repeat unit)
- CH4 permeability: 315 Barrer
- CO2 permeability: 1300 Barrer
- H2 permeability: 635 Barrer
- N2 permeability: 130 Barrer
- O2 permeability: 290 Barrer

Structure (SMILES): *C(=C(*)c1ccc([Si](C)(C)C)cc1)c1ccc(-c2ccc(C(C)(C)C)cc2)cc1 (repeat unit)
- CH4 permeability: 730 Barrer
- CO2 permeability: 3300 Barrer
- H2 permeability: 1200 Barrer
- N2 permeability: 250 Barrer
- O2 permeability: 620 Barrer

Structure (SMILES): *C(=C(*)c1ccc([Si](C)(C)C)cc1)c1ccc(O[Si](C)(C)C(C)(C)C)cc1 (repeat unit)
- CH4 permeability: 1100 Barrer
- CO2 permeability: 3800 Barrer
- H2 permeability: 1500 Barrer
- N2 permeability: 390 Barrer
- O2 permeability: 830 Barrer

Structure (SMILES): *Oc1ccc(-c2c(-c3ccccc3)c(-c3ccccc3)c(-c3ccc4c(c3)Oc3c(C#N)c(*)c(*)c(C#N)c3O4)c(-c3ccccc3)c2-c2ccccc2)cc1O* (repeat unit)
- CH4 permeability: 192 Barrer
- CO2 permeability: 2390 Barrer
- H2 permeability: 1000 Barrer
- N2 permeability: 107 Barrer
- O2 permeability: 340 Barrer

Structure (SMILES): *Oc1ccc(-c2ccc(C3CCC(Oc4ccc(C5(c6ccc(*)cc6)c6ccccc6-c6ccccc65)cc4)C(C(F)(F)F)C3)s2)cc1C(F)(F)F (repeat unit)
- CH4 permeability: 1.8 Barrer
- CO2 permeability: 35.7 Barrer
- H2 permeability: 55 Barrer
- N2 permeability: 1.99 Barrer
- O2 permeability: 8.4 Barrer

Structure (SMILES): *Oc1ccc(C(=O)c2ccc(-c3ccc(C(=O)c4ccc(Oc5ccc(C(C)(C)c6ccc(*)cc6)cc5)cc4)cc3)cc2)cc1 (repeat unit)
- CH4 permeability: 0.14 Barrer
- CO2 permeability: 3.3 Barrer
- H2 permeability: 8.9 Barrer
- N2 permeability: 0.13 Barrer
- O2 permeability: 0.75 Barrer

Structure (SMILES): *Oc1ccc(C(=O)c2cccc(-c3cccc(C(=O)c4ccc(Oc5ccc(C(c6ccc(*)cc6)(C(F)(F)F)C(F)(F)F)cc5)cc4)c3)c2)cc1 (repeat unit)
- CH4 permeability: 0.058 Barrer
- CO2 permeability: 1.95 Barrer
- N2 permeability: 0.0792 Barrer
- O2 permeability: 0.61 Barrer

Structure (SMILES): *Oc1ccc(C(=O)c2ccccc2-c2ccccc2C(=O)c2ccc(Oc3c(C)cc(-c4cc(C)c(*)c(C)c4)cc3C)cc2)cc1 (repeat unit)
- CH4 permeability: 0.264 Barrer
- CO2 permeability: 6.96 Barrer
- N2 permeability: 0.291 Barrer
- O2 permeability: 1.86 Barrer

Structure (SMILES): *Oc1ccc(C(C)(C)c2ccc(C(C)(C)c3ccc(Oc4ccc(S(=O)(=O)c5ccc(*)cc5)cc4)cc3)cc2)cc1 (repeat unit)
- CH4 permeability: 0.34 Barrer
- CO2 permeability: 6.8 Barrer
- H2 permeability: 36 Barrer
- N2 permeability: 0.321 Barrer
- O2 permeability: 1.8 Barrer

Structure (SMILES): *Oc1ccc(C(C)(C)c2ccc(OC(*)=O)cc2)cc1 (repeat unit)
- CH4 permeability: 0.331 Barrer
- CO2 permeability: 7.54 Barrer
- H2 permeability: 13 Barrer
- N2 permeability: 0.3 Barrer
- O2 permeability: 1.48 Barrer

Structure (SMILES): *Oc1ccc(C(C)(C)c2ccc(OC(=O)c3cc(C(*)=O)cc(C(C)(C)C)c3)cc2)cc1 (repeat unit)
- CH4 permeability: 1.43 Barrer
- CO2 permeability: 24.2 Barrer
- H2 permeability: 41.9 Barrer
- N2 permeability: 1.18 Barrer
- O2 permeability: 5.95 Barrer

Structure (SMILES): *Oc1ccc(C(C)(C)c2ccc(OC(=O)c3ccc(C(*)=O)cc3)cc2)cc1 (repeat unit)
- CH4 permeability: 0.678 Barrer
- CO2 permeability: 11.6 Barrer
- N2 permeability: 0.625 Barrer
- O2 permeability: 2.5 Barrer

Structure (SMILES): *Oc1ccc(C(C)(C)c2ccc(OC(=O)c3ccc(C(=O)Oc4cc(-c5cc(*)cc6ccccc56)c5ccccc5c4)cc3)cc2)cc1 (repeat unit)
- CH4 permeability: 0.471 Barrer
- CO2 permeability: 9.9 Barrer
- N2 permeability: 0.364 Barrer
- O2 permeability: 2.04 Barrer

Structure (SMILES): *Oc1ccc(C(C)(C)c2ccc(OC(=O)c3cccc(C(*)=O)c3)c(C(C)C)c2)cc1C(C)C (repeat unit)
- CH4 permeability: 0.305 Barrer
- CO2 permeability: 5.16 Barrer
- H2 permeability: 18.9 Barrer
- N2 permeability: 0.273 Barrer
- O2 permeability: 1.64 Barrer

Structure (SMILES): *Oc1ccc(C(C)(C)c2ccc(Oc3c(F)c(F)c(COC(C4CCCC(C(OCc5c(F)c(F)c(*)c(F)c5F)(C(F)(F)F)C(F)(F)F)C4)(C(F)(F)F)C(F)(F)F)c(F)c3F)cc2)cc1 (repeat unit)
- CH4 permeability: 0.32 Barrer
- CO2 permeability: 6.4 Barrer
- H2 permeability: 17 Barrer
- N2 permeability: 0.48 Barrer
- O2 permeability: 2.1 Barrer

Structure (SMILES): *Oc1ccc(C(C)(C)c2ccc(Oc3ccc(C(=O)c4ccc(*)cc4)cc3)cc2)cc1 (repeat unit)
- CH4 permeability: 0.18 Barrer
- CO2 permeability: 3.5 Barrer
- H2 permeability: 11 Barrer
- N2 permeability: 0.16 Barrer
- O2 permeability: 1 Barrer

Structure (SMILES): *Oc1ccc(C(C)(C)c2ccc(Oc3ccc(C(=O)c4ccc(C(=O)c5ccc(*)cc5)cc4)cc3)cc2)cc1 (repeat unit)
- CH4 permeability: 0.084 Barrer
- CO2 permeability: 2.19 Barrer
- H2 permeability: 9.07 Barrer
- N2 permeability: 0.087 Barrer
- O2 permeability: 0.604 Barrer

Structure (SMILES): *Oc1ccc(C(C)(C)c2ccc(Oc3ccc(C(=O)c4ccc(C(C)(C)c5ccc(C(=O)c6ccc(*)cc6)cc5)cc4)cc3)cc2)cc1 (repeat unit)
- CH4 permeability: 0.22 Barrer
- CO2 permeability: 4.4 Barrer
- H2 permeability: 12.4 Barrer
- N2 permeability: 0.21 Barrer
- O2 permeability: 1.1 Barrer

Structure (SMILES): *Oc1ccc(C(C)(C)c2ccc(Oc3ccc(S(=O)(=O)c4ccc(*)cc4)cc3)c(C)c2)cc1C (repeat unit)
- CH4 permeability: 0.07 Barrer
- CO2 permeability: 2.1 Barrer
- H2 permeability: 11 Barrer
- N2 permeability: 0.091 Barrer
- O2 permeability: 0.64 Barrer

Structure (SMILES): *Oc1ccc(C(C)(C)c2ccc(Oc3ccc4c(c3)C(=O)N(c3ccc(N5C(=O)c6ccc(*)cc6C5=O)cc3)C4=O)cc2)cc1 (repeat unit)
- CH4 permeability: 0.04 Barrer
- CO2 permeability: 1.8 Barrer
- O2 permeability: 0.4 Barrer

Structure (SMILES): *Oc1ccc(C(C)(C)c2ccc(Oc3ccc4c(c3)C(=O)N(c3cccc(N5C(=O)c6ccc(*)cc6C5=O)c3)C4=O)cc2)cc1 (repeat unit)
- CH4 permeability: 0.0356 Barrer
- CO2 permeability: 1.3 Barrer
- N2 permeability: 0.0526 Barrer
- O2 permeability: 0.4 Barrer

Structure (SMILES): *Oc1ccc(C(C)(c2ccccc2)c2ccc(OC(=O)c3cccc(C(*)=O)c3)cc2)cc1 (repeat unit)
- CH4 permeability: 0.59 Barrer
- CO2 permeability: 13.1 Barrer
- N2 permeability: 0.54 Barrer
- O2 permeability: 2.58 Barrer

Structure (SMILES): *Oc1ccc(C(C)(c2ccccc2)c2ccc(Oc3ccc(S(=O)(=O)c4ccc(*)cc4)cc3)cc2)cc1 (repeat unit)
- CH4 permeability: 0.32 Barrer
- CO2 permeability: 8.12 Barrer
- N2 permeability: 0.278 Barrer
- O2 permeability: 1.56 Barrer

Structure (SMILES): *Oc1ccc(C(c2ccc(OC(*)=O)cc2)(C(F)(F)F)C(F)(F)F)cc1 (repeat unit)
- CH4 permeability: 1.05 Barrer
- CO2 permeability: 24 Barrer
- H2 permeability: 27 Barrer
- N2 permeability: 1.7 Barrer
- O2 permeability: 6.9 Barrer

Structure (SMILES): *Oc1ccc(C(c2ccc(OC(=O)c3ccc(C(*)=O)cc3)cc2)(C(F)(F)F)C(F)(F)F)cc1 (repeat unit)
- CH4 permeability: 2.74 Barrer
- CO2 permeability: 47.1 Barrer
- N2 permeability: 2.95 Barrer
- O2 permeability: 11.8 Barrer

Structure (SMILES): *Oc1ccc(C(c2ccc(Oc3ccc(C(=O)c4ccc(C(C)(C)c5ccc(C(=O)c6ccc(*)cc6)cc5)cc4)cc3)cc2)(C(F)(F)F)C(F)(F)F)cc1 (repeat unit)
- CH4 permeability: 0.345 Barrer
- CO2 permeability: 8 Barrer
- H2 permeability: 22.8 Barrer
- N2 permeability: 0.44 Barrer
- O2 permeability: 2.4 Barrer

Structure (SMILES): *Oc1ccc(C(c2ccc(Oc3ccc(S(=O)(=O)c4ccc(*)cc4)cc3)cc2)(C(F)(F)F)C(F)(F)F)cc1 (repeat unit)
- CH4 permeability: 0.55 Barrer
- CO2 permeability: 12 Barrer
- N2 permeability: 0.67 Barrer
- O2 permeability: 3.4 Barrer
